Measurements: ChEMBL document CHEMBL1201862, “PubChem BioAssay data set” (2004)
The source made the active and inactive calls.

Assays:
[1] = Luminescence Cell-Based Dose Confirmation to Identify Activators of 5'UTR Stem-Loop Driven Alpha-Synuclein mRNA Translation in H4 Neuroglioblastoma Cells. [Related pubchem assays: 1829 (Project Summary), 1814 (Primary HTS)]; assay type: functional
[2] = Luminescence Cell-Based Dose Response HTS to Identify Activators of Luciferase Translation or Activity in H4 […] Cells. [Related pubchem assays: 1829 (Project Summary), 1814 (Primary HTS)]; assay type: functional
[3] = test system: H4; assay: Luminescence Cell-Based Dose Response HTS to Identify Activators of 5'UTR Stem-Loop Driven Prion Protein mRNA Translation in H4 Neuroglioblastoma Cells. [Related pubchem assays: 1829 (Project Summary), 1814 (Primary HTS)]; assay type: functional; conditions: Homo sapiens
[4] = Luminescence Cell-Based Dose Response to Identify Activators of Luciferase Translation or Activity in H4-C Neuroglioblastoma Cells. [Related pubchem assays: 1829 (Project Summary), 1814 (Primary HTS)]; assay type: functional
[5] = Luminescence Cell-Based Dose Response to Identify Activators of 5'UTR Stem-Loop Driven Prion Protein mRNA Translation in H4-C Neuroglioblastoma Cells. [Related pubchem assays: 1829 (Project Summary), 1814 (Primary HTS)]; assay type: functional
[6] = biological target: T1, Long-chain-fatty-acid--AMP ligase FadD28 (Mycobacterium tuberculosis, UniProt P9WQ59); assay: Fluorescence polarization aasay to screen for inhibitors that compete for the binding of FadD28 to a bisubstrate Measured in Biochemical System Using Plate Reader - 2147-01_Inhibitor_Dose_CherryPick_Activity.; assay type: functional, Mycobacterium tuberculosis H37Rv
T1 sequence (P9WQ59 whole entry): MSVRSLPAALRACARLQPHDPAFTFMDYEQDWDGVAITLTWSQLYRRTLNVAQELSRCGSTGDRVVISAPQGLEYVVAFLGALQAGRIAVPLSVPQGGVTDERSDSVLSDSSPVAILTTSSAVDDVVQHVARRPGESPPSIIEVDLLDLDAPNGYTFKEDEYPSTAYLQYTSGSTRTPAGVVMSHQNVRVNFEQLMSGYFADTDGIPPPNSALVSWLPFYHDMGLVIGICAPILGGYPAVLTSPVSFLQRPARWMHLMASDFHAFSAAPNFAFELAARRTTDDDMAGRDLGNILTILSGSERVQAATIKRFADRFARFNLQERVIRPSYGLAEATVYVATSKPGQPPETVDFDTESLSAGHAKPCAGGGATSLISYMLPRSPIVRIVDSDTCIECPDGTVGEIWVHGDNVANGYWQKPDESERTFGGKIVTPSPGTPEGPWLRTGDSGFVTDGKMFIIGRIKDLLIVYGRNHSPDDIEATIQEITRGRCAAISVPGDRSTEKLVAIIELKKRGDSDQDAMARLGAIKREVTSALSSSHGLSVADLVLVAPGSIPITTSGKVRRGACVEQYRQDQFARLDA

[7] = biological target: Prothrombin (Homo sapiens, UniProt P00734); assay: Thrombin 1536 HTS Dose Response Confirmation. [Related pubchem assays: 1046 (Thrombin 1536 HTS; hits were confirmed in this assay)]; assay type: functional
[8] = cells; assay type: functional, cell-based
[9] = cells; assay type: functional, cell-based; remark: listed apart in the source
[10] = biological target: Beta-galactosidase (Escherichia coli, UniProt Q8VNN2); assay: Dose response counterscreen for EBI2 assay utilizing the enzyme, b-galactosidase.; assay type: functional
Beta-galactosidase, sequence (Q8VNN2 whole entry, the tested form may be a part): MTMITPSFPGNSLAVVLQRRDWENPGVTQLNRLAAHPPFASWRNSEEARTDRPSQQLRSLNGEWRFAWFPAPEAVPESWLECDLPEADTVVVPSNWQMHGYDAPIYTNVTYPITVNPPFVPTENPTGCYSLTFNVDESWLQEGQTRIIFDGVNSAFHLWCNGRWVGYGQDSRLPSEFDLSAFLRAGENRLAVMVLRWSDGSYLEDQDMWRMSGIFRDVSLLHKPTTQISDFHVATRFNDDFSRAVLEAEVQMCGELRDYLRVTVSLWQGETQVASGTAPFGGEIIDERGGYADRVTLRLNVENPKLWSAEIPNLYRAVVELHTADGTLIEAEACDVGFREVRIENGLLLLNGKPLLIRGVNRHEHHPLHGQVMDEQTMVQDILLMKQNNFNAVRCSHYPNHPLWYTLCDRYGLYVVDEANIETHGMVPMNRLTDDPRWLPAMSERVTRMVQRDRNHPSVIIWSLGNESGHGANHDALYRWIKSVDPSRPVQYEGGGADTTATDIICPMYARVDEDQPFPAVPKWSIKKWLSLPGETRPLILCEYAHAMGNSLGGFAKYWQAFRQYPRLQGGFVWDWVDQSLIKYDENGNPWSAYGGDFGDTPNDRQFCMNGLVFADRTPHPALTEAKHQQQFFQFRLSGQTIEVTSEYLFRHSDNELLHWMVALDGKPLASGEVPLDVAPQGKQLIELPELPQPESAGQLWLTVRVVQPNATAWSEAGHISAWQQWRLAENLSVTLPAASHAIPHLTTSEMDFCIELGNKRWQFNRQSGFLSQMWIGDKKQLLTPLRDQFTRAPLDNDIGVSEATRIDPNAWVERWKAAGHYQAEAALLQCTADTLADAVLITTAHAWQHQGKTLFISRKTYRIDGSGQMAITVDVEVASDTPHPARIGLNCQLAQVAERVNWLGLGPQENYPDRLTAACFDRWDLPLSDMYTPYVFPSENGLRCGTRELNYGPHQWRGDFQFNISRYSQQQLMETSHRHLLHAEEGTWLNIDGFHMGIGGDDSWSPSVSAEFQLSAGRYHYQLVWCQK

[11] = biological target: T2, RNA-binding protein pos-1 (Caenorhabditis elegans, UniProt G5EF15); assay: disruptors of C. elegans POS-1 RNA interaction – biochemical, fluorescence polarization, dose response (AID 1964);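 further: purified POS-1 fused to maltose binding protein made in E. coli; potency of compounds blocking POS-1 binding to fluorescent RNA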
T2 sequence (G5EF15 whole entry): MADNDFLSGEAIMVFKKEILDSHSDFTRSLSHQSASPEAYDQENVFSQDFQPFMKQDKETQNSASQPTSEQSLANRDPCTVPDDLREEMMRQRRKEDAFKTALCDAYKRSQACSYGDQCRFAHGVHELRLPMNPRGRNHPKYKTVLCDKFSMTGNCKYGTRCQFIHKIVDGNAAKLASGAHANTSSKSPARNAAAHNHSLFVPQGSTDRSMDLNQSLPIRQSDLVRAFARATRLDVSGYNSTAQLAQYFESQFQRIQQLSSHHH

[12] = biological target: T3, Zinc finger protein mex-5 (Caenorhabditis elegans, UniProt Q9XUB2); assay: potency of MEX-5 RNA-binding blockers – biochemical, C. elegans, fluorescence polarization, dose response (AID 1960)
T3 sequence (Q9XUB2 whole entry): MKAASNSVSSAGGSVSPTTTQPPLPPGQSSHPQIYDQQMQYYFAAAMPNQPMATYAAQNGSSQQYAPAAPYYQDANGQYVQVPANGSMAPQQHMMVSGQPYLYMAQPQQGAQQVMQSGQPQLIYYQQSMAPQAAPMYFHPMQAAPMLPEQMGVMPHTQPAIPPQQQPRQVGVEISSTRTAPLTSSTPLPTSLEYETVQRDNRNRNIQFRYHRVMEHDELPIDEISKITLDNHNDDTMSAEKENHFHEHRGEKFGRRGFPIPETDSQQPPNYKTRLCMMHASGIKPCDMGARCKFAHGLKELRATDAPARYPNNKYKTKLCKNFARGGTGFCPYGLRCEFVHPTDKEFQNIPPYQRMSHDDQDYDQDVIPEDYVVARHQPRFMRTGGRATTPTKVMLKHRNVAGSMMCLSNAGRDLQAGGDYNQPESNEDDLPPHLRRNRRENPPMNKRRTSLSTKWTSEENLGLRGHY

[13] = biological target: T4, Fatty acid synthase (Homo sapiens, UniProt P49327); assay: inhibition of human FAS-TE enzyme activity – biochemical, endpoint fluorescence intensity, uHTS hits, dose response (AID 624327); assay type: functional;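 further: fluorescence from hydrolysis of an O-methyl fluorescein acyl ester substrate by the enzyme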
T4 sequence (P49327 whole entry): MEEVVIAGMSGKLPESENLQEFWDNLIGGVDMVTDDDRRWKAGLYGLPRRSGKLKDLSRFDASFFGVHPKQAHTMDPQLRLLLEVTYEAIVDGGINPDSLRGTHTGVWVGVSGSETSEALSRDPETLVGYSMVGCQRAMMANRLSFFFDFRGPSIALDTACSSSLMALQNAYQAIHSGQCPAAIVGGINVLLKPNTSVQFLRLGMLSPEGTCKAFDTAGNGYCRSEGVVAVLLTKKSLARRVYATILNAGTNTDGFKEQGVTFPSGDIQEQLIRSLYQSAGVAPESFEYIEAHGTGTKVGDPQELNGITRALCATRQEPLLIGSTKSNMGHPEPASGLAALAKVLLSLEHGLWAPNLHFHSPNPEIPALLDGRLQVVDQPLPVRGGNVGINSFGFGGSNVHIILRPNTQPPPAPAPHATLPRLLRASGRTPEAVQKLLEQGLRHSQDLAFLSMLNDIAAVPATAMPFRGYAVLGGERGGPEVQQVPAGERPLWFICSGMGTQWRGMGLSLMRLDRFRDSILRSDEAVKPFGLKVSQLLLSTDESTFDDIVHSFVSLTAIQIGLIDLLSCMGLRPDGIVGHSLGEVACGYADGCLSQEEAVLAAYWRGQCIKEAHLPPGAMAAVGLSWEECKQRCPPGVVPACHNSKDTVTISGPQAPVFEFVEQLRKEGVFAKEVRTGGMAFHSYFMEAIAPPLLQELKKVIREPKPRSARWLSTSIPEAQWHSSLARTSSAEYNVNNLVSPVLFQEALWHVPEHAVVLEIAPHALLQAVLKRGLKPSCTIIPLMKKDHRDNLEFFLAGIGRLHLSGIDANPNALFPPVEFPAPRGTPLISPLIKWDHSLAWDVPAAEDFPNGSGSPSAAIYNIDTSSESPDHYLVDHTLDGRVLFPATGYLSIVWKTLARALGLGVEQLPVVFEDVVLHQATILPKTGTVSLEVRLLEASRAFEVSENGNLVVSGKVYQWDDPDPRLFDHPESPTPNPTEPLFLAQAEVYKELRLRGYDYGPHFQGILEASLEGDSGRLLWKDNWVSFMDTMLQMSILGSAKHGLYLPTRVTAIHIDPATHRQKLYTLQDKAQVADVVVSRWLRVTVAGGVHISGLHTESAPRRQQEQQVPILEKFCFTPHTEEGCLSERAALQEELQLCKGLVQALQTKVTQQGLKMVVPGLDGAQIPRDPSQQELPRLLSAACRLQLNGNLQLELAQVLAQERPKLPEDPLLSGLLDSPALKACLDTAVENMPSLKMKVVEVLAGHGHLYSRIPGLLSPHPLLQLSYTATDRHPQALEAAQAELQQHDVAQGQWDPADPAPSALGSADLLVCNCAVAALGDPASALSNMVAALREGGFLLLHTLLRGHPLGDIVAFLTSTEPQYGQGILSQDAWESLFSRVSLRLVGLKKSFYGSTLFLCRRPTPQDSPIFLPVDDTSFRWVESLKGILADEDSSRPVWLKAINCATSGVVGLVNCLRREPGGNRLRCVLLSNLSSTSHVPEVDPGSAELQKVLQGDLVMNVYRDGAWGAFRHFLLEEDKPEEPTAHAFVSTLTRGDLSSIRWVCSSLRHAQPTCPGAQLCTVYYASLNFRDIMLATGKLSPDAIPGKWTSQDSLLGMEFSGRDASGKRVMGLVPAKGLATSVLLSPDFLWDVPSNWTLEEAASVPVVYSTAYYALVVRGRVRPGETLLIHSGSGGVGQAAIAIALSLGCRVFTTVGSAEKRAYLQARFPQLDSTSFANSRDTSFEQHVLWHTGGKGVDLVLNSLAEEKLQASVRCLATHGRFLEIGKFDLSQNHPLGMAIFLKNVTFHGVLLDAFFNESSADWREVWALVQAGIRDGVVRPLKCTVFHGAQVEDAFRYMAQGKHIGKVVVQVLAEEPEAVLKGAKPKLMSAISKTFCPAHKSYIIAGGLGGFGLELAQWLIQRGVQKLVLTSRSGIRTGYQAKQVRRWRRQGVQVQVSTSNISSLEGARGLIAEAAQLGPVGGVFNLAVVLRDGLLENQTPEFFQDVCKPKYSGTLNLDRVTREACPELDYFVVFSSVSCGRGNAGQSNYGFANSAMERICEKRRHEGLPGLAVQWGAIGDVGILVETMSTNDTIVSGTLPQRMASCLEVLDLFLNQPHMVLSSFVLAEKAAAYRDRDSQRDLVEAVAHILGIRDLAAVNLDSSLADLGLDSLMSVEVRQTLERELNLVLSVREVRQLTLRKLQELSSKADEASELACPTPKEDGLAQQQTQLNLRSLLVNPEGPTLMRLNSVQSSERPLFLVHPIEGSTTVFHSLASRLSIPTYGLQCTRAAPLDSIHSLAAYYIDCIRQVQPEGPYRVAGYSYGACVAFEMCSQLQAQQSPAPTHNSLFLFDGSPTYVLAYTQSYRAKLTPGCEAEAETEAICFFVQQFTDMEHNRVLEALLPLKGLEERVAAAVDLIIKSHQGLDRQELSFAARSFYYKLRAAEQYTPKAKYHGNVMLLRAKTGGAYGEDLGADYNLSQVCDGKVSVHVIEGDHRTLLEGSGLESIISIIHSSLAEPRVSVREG

[14] = biological target: Eukaryotic translation initiation factor 4E (Mus musculus, UniProt P63073); assay: blockers of eIF4G binding by eIF4E – biochemical, TR-FRET, dose response (AID 855); assay type: functional;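 further: potency for disrupting eIF4E binding to eIF4GI seen as loss of FRET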
Eukaryotic translation initiation factor 4E, sequence (P63073 whole entry): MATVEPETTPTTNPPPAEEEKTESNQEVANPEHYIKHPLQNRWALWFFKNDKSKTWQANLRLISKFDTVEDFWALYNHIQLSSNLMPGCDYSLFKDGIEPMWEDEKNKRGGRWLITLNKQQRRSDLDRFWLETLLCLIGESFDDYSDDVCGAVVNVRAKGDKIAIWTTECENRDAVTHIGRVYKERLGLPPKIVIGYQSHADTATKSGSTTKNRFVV

[15] = biological target: DNA dC->dU-editing enzyme APOBEC-3G (Homo sapiens, UniProt Q9HC16); assay: Dose Response confirmation of small molecule APOBEC3G DNA Deaminase Inhibitors via a fluorescence-based single-stranded DNA deaminase assay. [Related pubchem assays (depositor defined):AID493012, AID493028]; assay type: functional
DNA dC->dU-editing enzyme APOBEC-3G, sequence (Q9HC16 whole entry): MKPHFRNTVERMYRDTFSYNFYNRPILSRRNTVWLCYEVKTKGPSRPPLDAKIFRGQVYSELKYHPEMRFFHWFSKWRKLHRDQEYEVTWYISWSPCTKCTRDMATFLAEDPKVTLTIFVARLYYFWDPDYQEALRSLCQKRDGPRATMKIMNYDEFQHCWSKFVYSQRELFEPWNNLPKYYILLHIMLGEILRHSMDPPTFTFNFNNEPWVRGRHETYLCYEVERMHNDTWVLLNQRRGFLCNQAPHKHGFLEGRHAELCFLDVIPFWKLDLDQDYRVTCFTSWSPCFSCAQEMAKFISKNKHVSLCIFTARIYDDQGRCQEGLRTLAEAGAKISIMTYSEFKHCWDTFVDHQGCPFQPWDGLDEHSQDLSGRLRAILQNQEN

[16] = biological target: T4, Fatty acid synthase; assay: inhibition of human FAS-TE enzyme activity – biochemical, kinetic fluorescence intensity, dose response (AID 624326); assay type: functional;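 further: rate of fluorescence rise from hydrolysis of a fluorogenic O-methyl fluorescein ester substrate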

SMILES: CCN(CC)c1ccc(NC(=O)c2cncc(Br)c2)cc1
- EC50 [1]: 0.53 µM (active)
- EC50 [2]: 1.48 µM (active)
- EC50 [3]: 14.3 µM (active)
- EC50 [4]: > 12 µM (not active)
- EC50 [5]: > 12 µM (not active)

SMILES: COc1ccc(/C=C/C(=O)N(C)Cc2cccs2)cc1S(=O)(=O)N1CCOCC1
- AC50 [6]: 42.6 µM (active)

SMILES: COc1ccc(-c2nn(C)c(=O)c3ccccc23)cc1CNC(=O)C1CCCCC1
- IC50 [7]: > 50 µM (not active)

SMILES: Cc1c(C(=O)N2CCc3ccccc3C2)oc2ccc(S(=O)(=O)N3CC(C)CC(C)C3)cc12 (stereo unspecified)
- EC50 [8]: > 29.9 µM (inactive)
- IC50 [9]: > 29.9 µM (inactive)

SMILES: O=C(/C=C/c1ccc(Cl)cc1)N1CCN(c2ccccn2)CC1
- IC50 [10]: > 80 µM (inactive)

SMILES: CCc1c(C(=O)NNC(=S)Nc2ccc(S(=O)(=O)Nc3ncccn3)cc2)csc1C
- EC50 [11]: > 300 µM (not active)
- AC50 [6]: 89.7 µM (active)
- EC50 [12]: 12.5 µM (active)

SMILES: CCS(=O)(=O)c1ccc2oc(Nc3ccc(C(C)C)cc3)nc2c1
- IC50 [13]: 22.3 µM (inactive)
- IC50 [14]: > 64 µM (inactive)
- IC50 [15]: 20.7 µM (active)
- IC50 [16]: 12.6 µM (active)

SMILES: CSC1=N/C(=C\c2ccc(C)o2)C(=O)S1
- IC50 [7]: > 50 µM (not active)

SMILES: CCN1CCN(C(=O)c2cc3c(s2)-c2c(C)cccc2OC3)CC1
- IC50 [10]: > 80 µM (inactive)
- EC50 [2]: 5.32 µM (active)
- EC50 [3]: 9.85 µM (active)
